Assay results reported in ChEMBL document CHEMBL5233210, “Pyrazolone structural motif in medicinal chemistry: Retrospect and prospect” (Eur J Med Chem, 2020).
Values after ≈ are worked out from the molar mass of the structure shown.

Tests used:
Aspergillus niger = assay: Antifungal activity against Aspergillus niger; assay type: functional
Bacillus subtilis [1] = assay: Antibacterial activity against Bacillus subtilis; assay type: functional
Escherichia coli [2] = assay: Antibacterial activity against Escherichia coli; assay type: functional
Candida albicans = assay: Antifungal activity against Candida albicans; assay type: functional
Aspergillus fumigatus = assay: Antifungal activity against Aspergillus fumigatus; assay type: functional
Pseudomonas aeruginosa = assay: Antibacterial activity against Pseudomonas aeruginosa; assay type: functional
Streptococcus pyogenes = assay: Antibacterial activity against Streptococcus pyogenes; assay type: functional
Rattus norvegicus = assay: Antiinflammatory activity against rat assessed as inhibition of carrageenan-induced paw edema relative to control; assay type: functional; set-up: concentration or dose not given beside the values
Ovis aries = organism: Ovis aries; assay: Selectivity index, ratio of IC50 for ovine COX-1 to IC50 for ovine COX-2
[3] = Antioxidant activity assessed as DPPH radical scavenging activity; assay type: functional
MCF7 = assay: Cytotoxicity against human MCF7 cells; assay type: functional, cell-based
Staphylococcus aureus = assay: Antibacterial activity against Staphylococcus aureus; assay type: functional
Ehrlich [4] = assay: Cytotoxicity against mouse Ehrlich ascites cells assessed as dead cells at 25 ug/ml; assay type: functional; conditions: dose 25 µg/ml
Ehrlich [5] = assay: Cytotoxicity against mouse Ehrlich ascites cells assessed as dead cells at 100 ug/ml; assay type: functional; conditions: dose 100 µg/ml
Ehrlich [6] = assay: Cytotoxicity against mouse Ehrlich ascites cells assessed as dead cells at 500 ug/ml; assay type: functional; conditions: dose 500 µg/ml
Escherichia coli [7] = assay: Antibacterial activity against Escherichia coli assessed as diameter of inhibition zone at 100 ppm; assay type: functional; conditions: read-out: DIZ
Bacillus subtilis [8] = assay: Antibacterial activity against Bacillus subtilis assessed as diameter of inhibition zone at 100 ppm; assay type: functional; conditions: read-out: DIZ
[9] = Antioxidant activity assessed as ABTS radical scavenging activity; assay type: functional

`O=C1/C(=C2/CN(c3ccccc3)N=C2c2ccccc2)C(c2ccccc2)=NN1c1ccccc1` gave an MIC (Aspergillus niger) of 5.1 µg/mL (≈ 11.2 µM), an MIC (Bacillus subtilis [1]) of 10 µg/mL (≈ 22 µM) and an MIC (Escherichia coli [2]) of 4.08 µg/mL (≈ 8.98 µM).
`CC1=NN(C(=S)NN)C(=O)/C1=N/Nc1ccc(S(N)(=O)=O)cc1` gave an MIC (Aspergillus niger) of 5.8 µg/mL (≈ 16.3 µM), an MIC (Escherichia coli [2]) of 125 µg/mL (≈ 352 µM) and an MIC (Candida albicans) of 11.6 µg/mL (≈ 32.6 µM).
Molecule `CC(C)CCC[C@@H](C)[C@H]1CC[C@H]2[C@@H]3C/C(=C4\C(=O)NN=C4N)C4CCCC[C@]4(C)[C@H]3CC[C@]12C` (some centres undefined) has an MIC (Aspergillus fumigatus) of 25 µg/mL (≈ 53.4 µM), an MIC (Escherichia coli [2]) of 50 µg/mL (≈ 107 µM) and an MIC (Pseudomonas aeruginosa) of 50 µg/mL (≈ 107 µM). The MIC (Candida albicans) was 25 µg/mL (≈ 53.4 µM) and the MIC (Streptococcus pyogenes) was 50 µg/mL (≈ 107 µM).
Work on `O=C1CC(Nc2ccccc2NC(=S)NC2CCCCC2)=NN1` yielded an Activity (Rattus norvegicus) of 56% and a Ratio IC50 (Ovis aries) of 4.73.
For `C/C(=N\c1c(C)n(C)n(-c2ccccc2)c1=O)c1ccc(O)cc1O`, the IC50 [3] was 19.1 µM.
Work on `COc1cc(-c2cc(C3C(=O)N(c4ccccc4)N=C3C)nc(N)n2)ccc1O` (centres undefined) yielded an Activity (Rattus norvegicus) of 61.23%.
Molecule `Cc1c(/N=C/c2cc(O)ccc2O)c(=O)n(-c2ccccc2)n1C` has an IC50 [3] of 17.1 µM.
In the case of `Cc1c(N/C=C2\C(=N)N(c3ccccc3)N=C2N)c(=O)n(-c2ccccc2)n1C`, the IC50 (MCF7) is reported as 60.7 µM.
Work on `CC1=NN(C(=S)NN)C(=O)/C1=N/Nc1ccc(C)cc1` yielded an MIC (Aspergillus niger) of 2.9 µg/mL (≈ 9.99 µM), an MIC (Escherichia coli [2]) of 125 µg/mL (≈ 431 µM) and an MIC (Candida albicans) of 7.8 µg/mL (≈ 26.9 µM).
For `CCCC1=NN(c2c(F)c(F)cc(F)c2F)C(=O)/C1=C\c1cn(-c2ccccc2)nc1-c1ccc(Cl)cc1`, the MIC (Staphylococcus aureus) was 100 µg/mL (≈ 186 µM), the MIC (Aspergillus niger) was > 1000 µg/mL and the MIC (Bacillus subtilis [1]) was 100 µg/mL (≈ 186 µM). It also gave an MIC (Escherichia coli [2]) of 62.5 µg/mL (≈ 116 µM), an MIC (Pseudomonas aeruginosa) of 200 µg/mL (≈ 371 µM) and an MIC (Candida albicans) of 1000 µg/mL (≈ 1860 µM). For the same molecule, the MIC (Streptococcus pyogenes) was 100 µg/mL (≈ 186 µM).
In the case of `CC1=NNC(=O)/C1=N/Nc1sc2c(c1C(N)=O)CCCC2`, the Activity (Ehrlich [4]) is reported as 38.1%, the Activity (Ehrlich [5]) is reported as 96.5% and the Activity (Ehrlich [6]) is reported as 66.6%.
`NC1=NNC(=O)C1(CCS(=O)(=O)c1ccccc1)CCS(=O)(=O)c1ccccc1` showed an MIC (Staphylococcus aureus) of 100 µg/mL (≈ 230 µM), an MIC (Aspergillus niger) of 100 µg/mL (≈ 230 µM) and an MIC (Bacillus subtilis [1]) of 100 µg/mL (≈ 230 µM).
With `CCOc1ccc(N/N=C2\C(=O)N(CC(=O)n3[nH]c(N)cc3=O)N=C2C(F)(F)F)cc1` the MIC (Staphylococcus aureus) was 12 µg/mL (≈ 27.4 µM), the MIC (Aspergillus niger) was 6.28 µg/mL (≈ 14.3 µM) and the MIC (Escherichia coli [2]) was 26.7 µg/mL (≈ 60.8 µM). It also gave an MIC (Pseudomonas aeruginosa) of 11.9 µg/mL (≈ 27.1 µM) and an MIC (Candida albicans) of 9.08 µg/mL (≈ 20.7 µM).
With `COc1ccc(-c2cc(C3C(=O)N(c4ccccc4)N=C3C)nc(N)n2)cc1` (centres undefined) the Activity (Rattus norvegicus) was 61.02%.
Work on `CCOC(=O)C1CCN(/C(Nc2ccccc2)=C2\C(=O)N(c3ccccc3)N=C2C)CC1` yielded a zone of inhibition at 100 µg/mL (Escherichia coli [7]) of 40 mm and a zone of inhibition at 100 µg/mL (Bacillus subtilis [8]) of 36 mm.
For `CC1=NN(c2nc(-c3ccccc3)cs2)C(=O)C1`, the Activity [9] was 85.7%.
In the case of `COc1cc(-c2cc(C3C(=O)N(c4ccc([N+](=O)[O-])cc4[N+](=O)[O-])N=C3C)nc(N)n2)ccc1O` (centres undefined), the Activity (Rattus norvegicus) is reported as 62.51%.
Work on `Cc1c(-n2cc(C#N)c(=O)n(-c3ccc(I)cc3)c2=S)c(=O)n(-c2ccccc2)n1C` yielded an IC50 (MCF7) of 30.7 µM.
`O=C1O[C@H]([C@@H](O)CO)C(O)=C1O` showed an Activity [9] of 88.2%.
`Cc1c(-n2cc(C#N)c(=O)n(-c3ccccc3)c2=N)c(=O)n(-c2ccccc2)n1C` gave an IC50 (MCF7) of 54.2 µM.
Molecule `CC1=NN(C(=S)NN)C(=O)/C1=N/Nc1ccc(Cl)cc1` has an MIC (Aspergillus niger) of 5.8 µg/mL (≈ 18.7 µM), an MIC (Escherichia coli [2]) of 188 µg/mL (≈ 603 µM) and an MIC (Candida albicans) of 15.6 µg/mL (≈ 50.2 µM).
`NC(=O)c1c(N/N=C2/C(=O)NN=C2N)sc2c1CCCC2` showed an Activity (Ehrlich [4]) of 65%, an Activity (Ehrlich [5]) of 98.4% and an Activity (Ehrlich [6]) of 81%.
`CC1=NN(c2ccccc2)C(=O)C1c1cc(-c2ccc(O)cc2)nc(N)n1` (centres undefined) showed an Activity (Rattus norvegicus) of 61.84%.
With `Nc1cc(=O)n(C(=O)CN2N=C(C(F)(F)F)/C(=N/Nc3ccc(Cl)cc3)C2=O)[nH]1` the MIC (Staphylococcus aureus) was 7.3 µg/mL (≈ 17 µM), the MIC (Aspergillus niger) was 6.8 µg/mL (≈ 15.8 µM) and the MIC (Escherichia coli [2]) was 12.7 µg/mL (≈ 29.5 µM). For the same molecule, the MIC (Pseudomonas aeruginosa) was 7.39 µg/mL (≈ 17.2 µM) and the MIC (Candida albicans) was 6.18 µg/mL (≈ 14.4 µM).
In the case of `Cc1c(/N=C/c2ccccc2)c(=O)n(-c2ccccc2)n1C`, the IC50 [3] is reported as 31.3 µM.
Work on `Nc1cc(=O)n(C(=O)CN2N=C(C(F)(F)F)/C(=N/Nc3ccc(Br)cc3)C2=O)[nH]1` yielded an MIC (Staphylococcus aureus) of 7.96 µg/mL (≈ 16.8 µM), an MIC (Aspergillus niger) of 7.52 µg/mL (≈ 15.9 µM) and an MIC (Escherichia coli [2]) of 13.3 µg/mL (≈ 28 µM). For the same molecule, the MIC (Pseudomonas aeruginosa) was 10.2 µg/mL (≈ 21.6 µM) and the MIC (Candida albicans) was 8.58 µg/mL (≈ 18.1 µM).
